Consider eight compounds from patent publication US12030903B2, “Antiviral compounds” (Gilead Sciences, Inc., priority 2020, dated 2024).

Data set [1] deals with Dengue 2, New Guinea strain (NGC). Description: DENV-2 moDC EC50 (qPCR of viral RNA in infected moDCs). The note with it: Dengue virus, human moDCs infected with Dengue 2 NGC, MOI=0.1, 48 hours. It is filed as cell-based, New Guinea strain (NGC); human moDCs. On the procedure:
Example 82. DENV-2 moDC EC50
Human monocyte-derived dendritic cells (moDCs) were derived from CD14+ monocytes (AllCells) cultured in Human Mo-DC Differentiation medium containing GM-CSF and IL-4 (Miltenyi Biotec). On day 7, moDCs were harvested by mechanical disruption, washed and suspended in serum-free RPMI. moDCs were infected with Vero-derived Dengue 2, New Guinea strain (NGC) at a MOI=0.1 for two hours in serum-free RPMI with gentle agitation at 37° C. Cells were washed and resuspended in 10% serum-containing RPMI (Gibco, supplemented with sodium pyruvate, NEAA, Penicillin-Streptomycin). […] were plated in triplicate in 96-well plates with compounds dispensed at graded doses (Hewlett-Packard D300 Digital Dispenser). All wells were normalized to 0.25% DMSO. At 48 hours, cells were washed with 1×PBS and all supernatants removed. Total RNA was extracted using RNEasy 96 plates (Qiagen) and used to generate first-strand cDNA using XLT cDNA 5× Supermix (QuantaBio). cDNA was used as a template in a Taqman qPCR duplex reaction specific to DENV2 viral and GAPDH gene expression. EC50 values were determined using Prism Graphpad software, with normalization to a positive control and no compound negative control wells.
In general terms: In qPCR the cycle at which signal appears reflects the starting amount.

Data set [2] can be described thus: moDC CC50 (CellTiter Glo viability). It is filed as cell-based, Human. The note with it: human, uninfected moDCs. On the procedure: Human monocyte-derived dendritic cells (moDCs) were derived from CD14+ monocytes (AllCells) cultured in Human Mo-DC Differentiation medium containing GM-CSF and IL-4 (Miltenyi Biotec). On day 7, moDCs were harvested by mechanical disruption, washed and cultured in triplicate at […] cells/well in 96-well plates with compounds dispensed at graded doses (Hewlett-Packard D300 Digital Dispenser). All wells were normalized to 0.25% DMSO. After 48 hours, CellTiter Glo (Promega) was added and incubated for 10 minutes at room temp before reading on a luminometer. % viability curves were calculated against no compound and no cell control wells. CC50 values were determined using Prism Graphpad software.
A general note: In ATP-based viability assays light output follows the ATP content of the culture.

The test system of data set [3] is Dengue serotype 2 New Guinea C (NGC) strain. Description: DENV-2 Huh-7 EC50 (qPCR of viral RNA in infected Huh7 cells). Type of data set: cell-based. The conditions noted are these: Dengue virus, DENV2, Huh-7, Huh7 cells infected with Dengue serotype 2 NGC, MOI=0.1, 48 hours. On the procedure: Huh7 (Human hepatocarcinoma 7) cells were maintained in 10% FCS-containing DMEM complete media. On the day of the assay, cells were trypsinized (0.1% Trypsin-EDTA), washed and infected for 2 hours in serum-free DMEM with Dengue serotype 2 New Guinea C (NGC) strain at MOI=0.1 with gentle agitation at 37° C. After 2 hours, cells were washed with serum-free media and suspended in 10% FCS-containing DMEM (Gibco, supplemented with sodium pyruvate, NEAA, Penicillin-Streptomycin). 10^5 cells were plated in triplicate in 96-well plates with compounds dispensed at graded doses (Hewlett-Packard D300 Digital Dispenser). All wells were normalized to 0.25% DMSO. At 48 hours, cells were washed with 1× PBS and all supernatants removed. Total RNA was extracted using RNEasy 96 plates (Qiagen) and used to generate first-strand cDNA using XLT cDNA 5× Supermix (QuantaBio). cDNA was used as a template in a Taqman qPCR duplex reaction specific to DENV2 viral and GAPDH gene expression. EC50 values were determined using Prism Graphpad software, with normalization to a positive control and no compound negative control wells.

Data set [4] in a line: Huh-7 CC50 (CellTiter Glo viability). Type of data set: cell-based, Human. The note with it: human, Huh7 hepatocarcinoma cells. On the procedure:
Human hepatocarcinoma 7 (Huh7) cells were maintained in 10% FCS-containing complete DMEM. On day of assay, cells were trypsinized with 0.1% Trypsin-EDTA, washed and cultured in triplicate at 1-2×10^4 cells/well in 96-well plates with compounds dispensed at graded doses (Hewlett-Packard D300 Digital Dispenser). All wells were normalized to 0.25% DMSO. After 48 hours, CellTiter Glo (Promega) was added and incubated for 10 minutes at room temp before reading on a luminometer. % viability curves were calculated against no compound and no cell control wells. CC50 values were determined using Prism Graphpad software.

Another data set has as its system RSV strain A2. Nature of the data set: RSV HEp-2 EC50 (infectious cytopathic cell protection assay). The note with it: human respiratory syncytial virus, HEp-2, 96 h, read-out: RSV Hep-2 EC50. Type of data set: cell-based, RSV strain A2; HEp-2 cells. As to the method:
Example 86. RSV HEp-2 EC50
Antiviral activity against RSV is determined using an infectious cytopathic cell protection assay in HEp-2 cells. In this assay, compounds inhibiting viral infection and/or replication produce a cytoprotective effect against the virus-induced cell killing that can be quantified using a cell viability reagent. The techniques used here are novel adaptations of methods described in published literature (Chapman et al., Antimicrob Agents Chemother. 2007, 51(9):3346-53.)
HEp-2 cells are obtained from ATCC (Manassas, VI) and maintained in MEM media supplemented with 10% fetal bovine serum and penicillin/streptomycin. Cells are passaged twice a week and kept at subconfluent stage. Commercial stock of RSV strain A2 (Advanced Biotechnologies, Columbia, MD) is titered before compound testing to determine the appropriate dilution of the virus stock that generates desirable cytopathic effect in HEp-2 cells.
For antiviral tests, HEp-2 cells are grown in large cell culture flasks to near confluency but not fully so. The compounds to be tested are prediluted in DMSO in 384-well compound dilution plates, either in an 8 or 40 sample per plate standardized dose response format. 3-fold serial dilution increments of each test compound are prepared in the plates and test samples are transferred via acoustic transfer apparatus (Echo, Labcyte) at 100 nL per well into cell culture assay 384-well plates. Each compound dilution is transferred in single or quadruplicate samples into dry assay plates, which are stored until assay is ready to go. The positive and negative controls are laid out in opposite on ends of the plate in vertical blocks (1 column).
Subsequently, an infectious mixture is prepared using an appropriate dilution of virus stock previously determined by titration with cells at a density of 50,000/mL and 20 uL/well is added to test plates w/compounds via automation (uFlow, Biotek). Each plate includes negative and positive controls (16 replicates each) to create 0% and 100% virus inhibition standards, respectively. Following the infection with RSV, testing plates are incubated for 4 days in a 37° C. cell culture incubator. After the incubation, a cell viability reagent, Cell TiterGlo (Promega, Madison, WI) is added to the assay plates, which are incubated briefly, and a luminescent readout is measured (Envision, Perkin Elmer) in all the assay plates. The RSV-induced cytopathic effect, percentage inhibition, is determined from the levels of remaining cell viability. […] Various potent anti-RSV tool compounds are used as positive controls for antiviral activity.
For orientation: Cytopathic effects are the visible damage that an infection or toxin causes in cultured cells.

The nature of data set [5]: HEp-2 CC50 (cytotoxicity in uninfected HEp-2 cells). It is filed as cell-based. The conditions noted are these: human, CellTiter Glo. On the procedure: Instead, an uninfected cell mixture at the same density is added at 20 uL/well to plates containing prediluted compounds, also at 100 nL/sample. Assay plates are then incubated for 4 days followed by a cell viability test using the same CellTiter Glo reagent addition and measurement of luminescent readouts. Untreated cell and cells treated at 2 μM puromycin (Sigma, St. Louis, MO) serve as 100% and 0% cell viability control, respectively.

SMILES strings stand for the structures.

The term EC50 denotes the concentration that produces a half-maximal response. By CC50 is commonly meant the concentration at which the toxic effect on the cells reaches its halfway point. A high value points to lower toxicity to the cells. For `CCCCOCCOC(=O)[C@H](C)NP(=O)(OC[C@@]1(CF)O[C@@H](c2ccc3c(N)ncnn23)[C@H](O)[C@@H]1O)Oc1ccccc1` (stereo partly drawn) [Example 42, 2-butoxyethyl ((((2R,3S,4R,5S)-5-(4-aminopyrrolo[2,1-f][1,2,4]triazin-7-yl)-2-(fluoromethyl)-3,4-dihydroxytetrahydrofuran-2-yl)methoxy)(phenoxy)phosphoryl)-L-alaninate], the EC50 in data set [1] is 258 nM; in data set [3], 667 nM; in the data set with RSV strain A2 it was 860 nM. Also, the CC50 at 48 h in data set [2] is 5330 nM; in data set [4] it was 21100 nM. The same compound came in with a CC50 at 4 days in data set [5] greater than 100000 nM.
In the case of `CCCCCOC(=O)[C@H](C)NP(=O)(OC[C@@]1(CF)O[C@@H](c2ccc3c(N)ncnn23)[C@H](O)[C@@H]1O)Oc1ccccc1` (stereo partly drawn) [Example 59, pentyl ((((2R,3S,4R,5S)-5-(4-aminopyrrolo[2,1-f][1,2,4]triazin-7-yl)-2-(fluoromethyl)-3,4-dihydroxytetrahydrofuran-2-yl)methoxy)(phenoxy)phosphoryl)-L-alaninate], the EC50 in data set [1] was found to be 62 nM; in data set [3] it was 153 nM; with RSV strain A2, 298 nM. The results for the cytotoxic concentration (CC50) at 48 h in data set [2] and in data set [4] were 7040 nM and 11300 nM, respectively. In data set [5], this compound gave a CC50 at 4 days of 45100 nM.
In the case of `CCCCCCOC(=O)[C@H](C)N[P@](=O)(OC[C@@]1(CF)O[C@@H](c2ccc3c(N)ncnn23)[C@H](O)[C@@H]1O)Oc1ccccc1` (single isomer, unassigned) [Example 19], the EC50 in data set [1] was found to be 212 nM; in data set [3] it was 416 nM; in the data set with RSV strain A2, 722 nM. Further, the CC50 at 48 h in data set [2] is 10900 nM; in data set [4], greater than 25000 nM. The compound also displayed a CC50 at 4 days in data set [5] greater than 97100 nM.
Regarding `CC(C)COC(=O)[C@H](C)NP(=O)(OC[C@@]1(CF)O[C@@H](c2ccc3c(N)ncnn23)[C@H](O)[C@@H]1O)Oc1ccccc1` (stereo partly drawn) [Example 70, isobutyl ((((2R,3S,4R,5S)-5-(4-aminopyrrolo[2,1-f][1,2,4]triazin-7-yl)-2-(fluoromethyl)-3,4-dihydroxytetrahydrofuran-2-yl)methoxy)(phenoxy)phosphoryl)-L-alaninate], the figures for the EC50 (in data set [1]; in data set [3]; in the data set with RSV strain A2) were 190 nM, 245 nM and 212 nM, respectively. Moreover, the CC50 at 48 h in data set [2] was 3570 nM; in data set [4], 10600 nM. Further, the CC50 at 4 days in data set [5] was determined as 69400 nM.
Consider `COC(C)(C)COC(=O)[C@H](C)NP(=O)(OC[C@@]1(CF)O[C@@H](c2ccc3c(N)ncnn23)[C@H](O)[C@@H]1O)Oc1ccccc1` (stereo partly drawn) [Example 43, 2-methoxy-2-methylpropyl ((((2R,3S,4R,5S)-5-(4-aminopyrrolo[2,1-f][1,2,4]triazin-7-yl)-2-(fluoromethyl)-3,4-dihydroxytetrahydrofuran-2-yl)methoxy)(phenoxy)phosphoryl)-L-alaninate], for which the EC50 in data set [1] is 626 nM; in data set [3], 1200 nM; with RSV strain A2 it was 2160 nM. Besides, the values for the CC50 at 48 h in data set [2] and in data set [4] were 17900 nM and greater than 25000 nM, respectively. The compound also gave a CC50 at 4 days in data set [5] greater than 100000 nM.
As to `CCOC(=O)[C@H](C)NP(=O)(OC[C@@]1(CF)O[C@@H](c2ccc3c(N)ncnn23)[C@H](O)[C@@H]1O)Oc1ccccc1` (stereo partly drawn) [Example 13, ethyl ((((2R,3S,4R,5S)-5-(4-aminopyrrolo[2,1-f][1,2,4]triazin-7-yl)-2-(fluoromethyl)-3,4-dihydroxytetrahydrofuran-2-yl)methoxy)(phenoxy)phosphoryl)-L-alaninate], the EC50 in data set [1] was 274 nM; in data set [3], 487 nM; in the data set on RSV strain A2, 844 nM. Besides, the CC50 at 48 h in data set [2] was greater than 10200 nM; in data set [4], greater than 25000 nM. This compound had a cytotoxic concentration (CC50) at 4 days in data set [5] greater than 89400 nM.
For the compound `CCCCOC(=O)[C@H](C)N[P@](=O)(OC[C@@]1(CF)O[C@@H](c2ccc3c(N)ncnn23)[C@H](O)[C@@H]1O)Oc1ccccc1` (single isomer, unassigned) [Example 46], the EC50 in data set [1] was determined as 158 nM; in data set [3] it was 386 nM; in the data set with RSV strain A2 it was 236 nM. For the same compound, the results for the CC50 at 48 h in data set [2] and in data set [4] were 3350 nM and 10200 nM, respectively. The same compound came in with a CC50 at 4 days in data set [5] of 37100 nM.
`CCC(=O)O[C@H]1[C@H](c2ccc3c(N)ncnn23)O[C@](CF)(CO[P@@](=O)(N[C@@H](C)C(=O)OC(C)C)Oc2ccccc2)[C@H]1OC(=O)CC` [Example 22, (2R,3S,4S,5S)-5-(4-aminopyrrolo[2,1-f][1,2,4]triazin-7-yl)-2-(fluoromethyl)-2-((((S)-(((S)-1-isopropoxy-1-oxopropan-2-yl)amino)(phenoxy)phosphoryl)oxy)methyl) tetrahydrofuran-3,4-diyl dipropionate]: the EC50 in data set [1] came out at 735 nM; in data set [3], 1030 nM; with RSV strain A2, 2360 nM. The CC50 at 48 h in data set [2] was greater than 23600 nM; in data set [4] it was greater than 25000 nM. This compound also registered a CC50 at 4 days in data set [5] of 71700 nM.
